In assay [1] the test system is HMEC-1 cells (human microvascular endothelial cells). The experiment in a line: Proliferation of HMEC-1 cells (CCK-8). The note with it: 48 hours, 0% serum medium, FIG. 2. It counts as cell-based. On the procedure: Experimental method: Human microvascular endothelial cells (HMEC-1 cells) were cultured in 10% serum medium at 37° C. and 5% CO2, the culture fluid was changed every 1-2 days, and the cell concentration was controlled to be 4*10^6 cells/mL for passaging. The cells were collected and prepared into a concentration of 4*10^4 cells/mL with a serum-free medium, seeded into a 96-well cell culture plate with 100 uL per well, i.e., 4000 cells/well, and cultured at 37° C. and 5% CO2 to be adherent.
(§1) The polypeptide was dissolved in PBS solution and prepared into a stock solution with a concentration of 1 mg/mL. The polypeptide stock solution was prepared with 0% serum medium to test concentrations as the experimental groups; in the same manner, recombinant human vascular endothelial growth factor VEGF (100 ng/mL) was prepared and added as positive control; and for the blank control group, the same volume of 0% serum medium without drugs was added. For all the groups, 5 duplicate wells were incubated at 37° C. and 5% CO2 for 48 hours. The CCK-8 was used to detect cell proliferation: serum-free medium containing 10% CCK-8 was added to each well, and absorbances were measured at 450 nm by microplate reader after incubation in an incubator for 2 hours.

Assay [2] concerns Transgenic zebrafish with vascular green fluorescence. The experiment in a line: Angiogenesis in zebrafish with simvastatin-induced microvessel deficiency. It counts as in vivo. The following applies: intravenous injection 12.5, 25.0 and 50.0 mg/mL, 10 nL, 2 days, vs model control. On the procedure: Experimental animals: Transgenic zebrafish with vascular green fluorescence, raised in water for culturing fish at 28° C. (water quality: 200 mg of instant dissolving sea salt being added to every 1 L of water made by reverse osmosis, with a conductivity of 450-550 μS/cm, a pH of 6.5-8.5 and a hardness of 50-100 mg/L CaCO3), at the age of 1 day post fertilization (1 dpf). The animals were provided by the fish breeding center of Hangzhou Hunter Biotechnology Co., Ltd. with the experimental animal use license number of SYXK (Zhejiang) 2012-0171, and the breeding management complied with the requirements of international AAALAC certification (certification number: 001458).
Experimental method: 1 dpf transgenic zebrafish with vascular green fluorescence were randomly selected and placed in a 6-well plate, with 30 fish per well (per experimental group). […] Treatment was performed at 28° C. for 2 days, 10 zebrafish were randomly selected in each experimental group and placed under a fluorescence microscope to take photos, the data were analyzed and collected using NIS-Elements D 3.20 advanced image processing software, the subintestinal vascular area and the number of subintestinal vascular branches were analyzed, and the statistical analysis results of these indexes were used to evaluate the efficacy of the samples of promoting angiogenesis.

Assay [3] has as its system RSC96 cells (Rat Schwann cells). The experiment in a line: Proliferation of RSC96 cells (CCK-8). Format: cell-based. The note with it: 48 hours, 0% serum medium, FIG. 4. On the procedure: Experimental method: Rat Schwann cells (RSC96 cells) were adjusted to a concentration of 1.0*10^5 to 5.0*10^5/mL for passaging, and cultured at 37° C. and 5% CO2 for 24-36 hours for the biological activity detection. The cells were digested by trypsin, collected, prepared into a concentration of 5*10^4/mL with a serum-free medium, seeded in a 96-well cell culture plate with 100 μL per well, i.e., […], and cultured overnight at 37° C. and 5% CO2.
as §1, with “of 400 ug/ml.” for “of 1 mg/mL.”, “groups;” for “groups; in the same manner, recombinant human vascular endothelial growth factor VEGF (100 ng/mL) was prepared and added as positive control;”, “the” for “the blank”, “groups, 4” for “groups, 5”, “proliferation: the old medium was removed, the” for “proliferation:”

For another assay, the system named is SD rats. The experiment in a line: Healing of acute mechanical skin injuries in rats. It counts as in vivo, rat. The following applies: for Wound healing rate: rats, acute mechanical injury, topical once a day, polypeptide 8 μg/cm^2, GeneTime 40 IU/cm^2, Mean ± SD, n = 6. On the procedure: Experimental animals: SD male rats, SPF grade, 6 weeks old, weighing 180-220 g, from Beijing Vital River Laboratory Animal Technology Co., Ltd.; animal license number: SCXK (Beijing) 2016-0006; and certification number: NO.110011210104746538.
Experimental method: SPF grade SD rats were housed in clean and sterilized cages, and were given water and feeds and padding replacement at regular intervals every day. The cultivation was kept at a temperature of 20-26° C. with a humidity of 40%-70%. The rats were kept for one week to adapt to the environment. According to the random grouping method, the animals were divided into 3 groups: model control group (normal saline), GeneTime group (40 IU/cm^2, recombinant human epidermal growth factor topical solution, from Shenzhen Watsin Genetech Ltd.), and subject polypeptide group (8 μg/cm^2), with 6 animals in each group. After the rats were successfully anesthetized by intraperitoneal injection of 3% pentobarbital sodium, the hair at 1 cm from the expected wound edge was cut off, the expected wound area was first disinfected with iodophor, then locally disinfected with 75% alcohol, and a round full layer of skin wound with a diameter of 1.5 cm was made at the middle of the ear line down to 4 cm below the back, near the cervical side, with the spine as the middle line, as deep as the muscular layer. The same sized rubber ring was used to fix the surrounding skin to form an animal model of acute mechanical injury. After modeling, the rats' wounds were exposed to the environment and fed in individual cages. Upon changing dressings, debridement was first performed with iodophor, and then the wound was washed with a sterile normal saline and wiped to dryness. Rats in each group were given 40 μL of corresponding drug solution by locally applying to the wound once a day periodically. On Days 0, 3, 7, 10 and 14 of administration, the wounds of each group of rats were photographed, the areas of the wounds were calculated with image analysis software (Image J), and the wound healing rates were calculated according to the formula.

Ends that are not written are not given here.

With PAAEPVPL [polypeptide], the “Proliferation-promoting effect on the HMEC-1 cell line” value in assay [1] is “significant effect of promoting proliferation”. The “Subintestinal vascular area (area of regenerated blood vessels)” value in assay [2] (FIG. 6) was “significantly promote the increase of the subintestinal vascular area”. In addition, in assay [2] (FIG. 7), the “Number of subintestinal vascular branches” value is on record as “the increase of the number of subintestinal vascular branches”. The “Proliferation-promoting effect on the RSC96 cell line” value in assay [3] is recorded as “significant effect of promoting proliferation”. Besides, the Wound healing rate was 0.00 ± 0.00% in the assay on SD rats (Day 0 (baseline)); −23.77 ± 6.16% with SD rats (Day 3); −10.78 ± 7.90% with SD rats (Day 7); 18.90 ± 17.63% in the assay on SD rats (Day 10); 88.42 ± 4.57 % in the assay with SD rats (Day 14). For the same sequence, the “Wound healing after mechanical skin injury in rats (statement in words)” value in the assay on SD rats (Day 14, 8 μg/cm^2, vs model control) is listed as “significant promotion of wound healing”.

(Values after US20250057910A1, “Application of Polypeptide in Preparation of Product for Preventing or Treating Skin Injury Diseases” (Sichuan Gooddoctor Panxi Pharmaceutical Co., Ltd., priority 2021, published 2025).)
